These results are taken from US9365851B2, “Spalt-like transcription factor 4 (SALL4) and uses thereof” (National University of Singapore, priority 2011, dated 2016).

Entries after “also recorded” stand apart in the source; their conditions may differ. Like-named read-outs stand apart in the source and are kept apart here.

One test deals with c-Myc. The test can be described thus: c-Myc protein expression in SNU-398 cells. In kind it is cell-based, human. As to the method: Also tested was whether wt peptide could affect genes that were known to be activated by SALL4, such as c-Myc. SNU-398 cells treated with wt or Scr peptide were evaluated for c-Myc protein expression. No change was observed among SNU-398 cells that were not treated or treated with either wt, Scr or TSA. When combined, the observation on the biological effects of the peptide treatment and the expression of Pten/Akt pathway in these cells, it was noticed that the wt peptide and its role in cell death promotion was correlated to its effect on the expression levels of Pten/Akt.

The subject of a further test is HL-60 cells. The test can be described thus: Cell viability assay (MTT/MTS). It counts as cell-based, human. Particulars: HL-60, 48-72 h. As to the method: FIG. 17: SALL4 peptide reduces the viability of leukemic HL-60 cells. HL60 human acute promyelocytic leukemia cells (ATCC), were cultured in RPMI medium with 10% FBS (Invitrogen). 5000 cells/well were seeded in 96 well plate. Peptides: MSRRKQAKPQHI-wt (SEQ ID NO: 1) and MSRRAQAKPQHI-mutant (SEQ ID NO: 6) were synthesized by Biosynthesis Inc. to 85% purity. Peptides and TSA were re-suspended in PBS and added to the final concentration as indicated. WT peptide was re-added 24 hours after the initial addition as indicated. Experiment was performed in triplicate. MTS assay was performed by adding 20 ul of the CellTiter 96® AQueous One Solution Reagent (Promega) directly to the cells in medium, incubating for 2 hours and then recording absorbance at 490 nm with a 96-well plate reader. The quantity of formazan product as measured by the amount of 490 nm absorbance is directly proportional to the number of living cells in culture.
Cell viability assay (MTT) (Invitrogen) was performed according to the manufacturer's instructions. Briefly—10000 cells were seeded in 100 ul medium in 96 well plates. The next day cells were treated as indicated on the figures. At the designated time after the treatment 20 ul of 5 mg/ml MTT solution was added to each well. After 3.5 h incubation at 37 C the medium was removed and the reaction was terminated with a solution of 4 mM HCl, 0.1% Nondet P-40 (NP40) all in isopropanol in dark on orbital shaker for […]. at room temperature. The absorbance was read at 590 nm with a reference filter of 620 nm in Spectromax M3 (ABI) spectrophotometer.
Multiple cell lines with or without SALL4 expression were chosen to test the biological effect(s) of this wt peptide. Wt or its control (Scr or Mut) peptide was delivered into tumor cells at various concentrations, and their effects on cells were evaluated at 48 or 72 hours post treatment by a MTT assay (Manufacture name). […] Since, as proposed herein, wt peptide can compete with SALL4 and release it from recruiting HDAC complex NuRD, the wt peptide would likely work as a HDAC inhibitor. Therefore, as a positive control, TSA, a broad HDAC inhibitor, was used in the same group of experiments along with the wt and Scr peptide.
Multiple leukemic and solid tumor cancer cell lines with high or low/no SALL4 expression (FIG. 10A) were chosen to test the biological effect(s) of the wild type peptide. Wild type or scrambled peptide was delivered into tumor cells at various concentrations, and their effects on cells were evaluated 72 hours post-treatment by the MTS cell viability assay. […] The effect of wild type peptide is SALL4-specific, as it had no effect on KBM5, an AML cell line with undetectable endogenous SALL4 expression. […] Therefore, expression of PTEN was evaluated in AN3CA cells along with other cell lines. […]

Another test addresses T1, HDAC complex (Homo sapiens, UniProt Q09028).
T1 construct: endogenous in cells; host or cells: SNU-398 nuclear extract
Briefly: Fluorescent polarization competitive binding in SNU-398 nuclear extracts. Particulars: unlabeled peptide competing with FITC-labeled peptide. The procedure: Below are the amino acid sequences of the peptides used in this study. In the mutant peptide (mut), Lys 5 is replaced with an alanine residue. […] In the first lane marked “Input”, 10% of the extracts were subjected to western blot analysis without immunoprecipitation. […] Extracts were subsequently immunoprecipitated with anti-FITC antibody and the complexes pulled down were subjected to an HDAC activity assay as described in the methods. TSA was added at a concentration of 100 nM. Input is the sample in which 10% of the extract was assayed for HDAC activity without the immunoprecipitation step. […] Competitive binding of nonlabeled wild type or scrambled peptides was measured by fluorescent polarization. […] The fluorescent polarization (y axis) is decreased if the FITC-labeled peptide is displaced from a larger complex.
Next tested was the binding affinity of the wild type and scrambled peptides to the HDAC complex. For this, Fluorescent Polarization (FP), a technology based on molecular movement and rotation in which fluorescent molecules are excited with polarized light, was used. If the fluorescent molecules are part of a large complex, they rotate less and the emitted light has high polarity. In contrast, smaller molecules rotate faster and have low polarity (“depolarized”). […] Using this approach, FITC-labeled wild type or scrambled peptides were first mixed with nuclear extracts from SNU-398 cells. Serial dilutions of unlabeled wild type or scrambled peptides were then added as competitors respectively, and measured by FP assay.

T1 sequence (Q09028 whole entry, one chain of several): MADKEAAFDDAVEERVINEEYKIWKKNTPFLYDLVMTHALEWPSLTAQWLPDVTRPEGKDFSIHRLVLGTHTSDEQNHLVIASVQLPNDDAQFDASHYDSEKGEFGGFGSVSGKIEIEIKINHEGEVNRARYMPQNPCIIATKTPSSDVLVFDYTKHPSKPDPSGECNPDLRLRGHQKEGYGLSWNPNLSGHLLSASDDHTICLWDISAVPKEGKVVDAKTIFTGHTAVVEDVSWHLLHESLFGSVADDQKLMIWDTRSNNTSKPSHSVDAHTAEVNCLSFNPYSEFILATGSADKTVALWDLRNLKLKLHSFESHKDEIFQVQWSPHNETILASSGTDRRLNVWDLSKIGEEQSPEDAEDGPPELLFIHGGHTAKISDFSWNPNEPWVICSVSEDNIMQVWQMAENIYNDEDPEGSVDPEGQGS

As to `CC(/C=C/C(=O)NO)=C\[C@@H](C)C(=O)c1ccc(N(C)C)cc1` [TSA, Trichostatin A, reference compound], in the test with c-Myc, the c-Myc protein expression result was “No change”.
With “H-MSRRKQAKPQHI-OH [wt peptide, MSRRKQAKPQHI]”, the cell viability result in the test on HL-60 cells is reported as “decreased cell viability”; with HL-60 cells (listed as WT) it was “decrease in cell viability”; in the test on HL-60 cells (listed as wild type peptide), “decreased cell viability; also recorded: reduces the number of the living cells”. Besides, the concentration for half-maximal inhibition (IC50) on HDAC complex (read-out: IC50) was determined as 5 µM. In addition, the c-Myc protein expression entry in the test on c-Myc was “No change”.
For “Scr peptide: same 12 amino acids as the wt peptide, but in a scrambled sequence; negative control (SRMRQKIHPKIQ) [reference compound]”, the cell viability result in the test with HL-60 cells is “remained unaffected”. Also, in the test with HDAC complex, the half-inhibitory concentration (IC50) entry was “could not be calculated due to the lack of binding activity”. In the test with c-Myc, the c-Myc protein expression result is listed as “No change”.

A word on the IC50: it is the concentration needed to halve the response being measured.
